Measured values taken from patent US8058236B2, “Aqueous inhalation pharmaceutical composition” (Development Center for Biotechnology, priority 2005, dated 2011).

Legend:
Sprague-Dawley male rats [1] = experiment: In vivo bioavailability study: plasma glucose decrease after pulmonary administration to rats; design: species or system rat; conditions: enhancer added to insulin formulation
Protocol: Sprague-Dawley male rats weighted 200-250 g were randomly divided into 7 groups. According to the method disclosed in Enna, S. T. et al. (J. Physiol., 1972, 222: 409-414), after the rats were narcotized by abdominally injecting pentobarbital sodium (28.6 ml/kg), catheters were inserted into the trachea and the left femoral artery, respectively, from the cut neck. Group 1 was the control group, wherein each rat was administered with Formulation A only.
The collected blood samples were centrifuged at 3000 rpm in 4° C. for 15 minutes. The upper layer of the plasma was collected. […] The concentrations of insulin in the upper layer samples of plasma were determined by the utilization of a Rat Insulin ELISA Kit (Mercodia), and the pharmacokinetic parameters of the absorption enhancers were further analyzed.

Sprague-Dawley male rats [2] = assay type: in vivo, rat; conditions: absorption enhancer in insulin formulation, pulmonary administration
Protocol: Sprague-Dawley male rats weighted 200-250 g were randomly divided into 7 groups. […] Group 1 was the control group, wherein each rat was administered with Formulation A only.
After administering the formulations to the lung for 0, 5, 15, 30, 60, 90, 120, 180, 240, and 300 minutes, 0.25 ml of blood sample was collected from each rat. After the pulmonary administration for 5 hours, an excess amount of pentobarbital sodium (3 ml) was injected into the femoral artery of the rats. After 5 minutes, the rats were bled and then pulmonary perfusion with phosphate buffer solution was performed.
The collected first 5 ml pulmonary perfusion samples were centrifuged at 350×g in 4° C. for 10 minutes. […]
Based on the pigmentation principle of Biuret reaction (British Pharmacopoeia, p. A23 (1998)), the amount of total protein was determined by measuring the value of OD546 with Autoanalyzer Hitachi 7150; then, the value was converted into the concentration of the protein (the results are shown in Table 3).
Based on the standard operation procedures of the GSCC (German Society of Clinical Chemistry; Recommendation of the German Society for Clinical Chemistry: Z. Klin. Chem. Klin. Biochem., 10, 287-288, 1972), the activity of LDH was determined by measuring the change of OD340 with Autoanalyzer Hitachi 7150; then, the change was converted into the activity of LDH (the results are shown in Table 3).

Row | Compound | bioavailability of insulin, maximal increase by addition of absorption enhancer (Sprague-Dawley male rats [1]) | toxic side effects in the lung (Sprague-Dawley male rats [2])
1 | CCCCCCCC/C=C\CCCCCCCC(=O)OCCOCC(OCCO)C1OCC(OCCO)C1OCCO (stereo not drawn) [Tween-80] | 84.6% | would not induce toxic side effects in the lung
2 | LPTC-lauroyl [L-LPTC] | – | would not induce toxic side effects in the lung
